Experimental data taken from patent US20120245137A1 (Zalicus Pharmaceuticals Ltd., priority 2009, published 2012).
Like-named read-outs stand apart in the source and are kept apart here.

Key:
Format in all cases: cell-based
[1] = biological target: Human Cav 2.2 channels (Homo sapiens, UniProt Q00975); experiment: Fluorescent assay for CaV2.2 channels using potassium depolarization (VIPR/FLIPR); details: FLIPR data; for CAv2.2 IC50 Ratio closed/inact.: ratio closed/inactivated IC50
Summary of the method: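 Fluo-4 calcium fluorescence (480/535 nm) was recorded on VIPR or FLIPR after depolarization to 70 mM final potassium. Before this, cells were preincubated 30 min at 25 °C with compound in 4–30 mM potassium, so that state-dependent block could be assessed; the cells were HEK293 coexpressing Cav2.2, α2δ, β and Kir2.3.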

[2] = biological target: CAv1.2 (Homo sapiens, UniProt Q13936); experiment: FLIPR data, CAv1.2 channel blocking (Table 6); details: for CAv1.2 IC50 Ratio closed/inact.: ratio closed/inactivated IC50
[3] = biological target: T-type calcium channel (Homo sapiens, UniProt O43497); experiment: T-type channel blocking, FLIPR data (Table 6); details: CAv3.1
Sequence of T-type calcium channel (Homo sapiens, UniProt O43497) (O43497 whole entry): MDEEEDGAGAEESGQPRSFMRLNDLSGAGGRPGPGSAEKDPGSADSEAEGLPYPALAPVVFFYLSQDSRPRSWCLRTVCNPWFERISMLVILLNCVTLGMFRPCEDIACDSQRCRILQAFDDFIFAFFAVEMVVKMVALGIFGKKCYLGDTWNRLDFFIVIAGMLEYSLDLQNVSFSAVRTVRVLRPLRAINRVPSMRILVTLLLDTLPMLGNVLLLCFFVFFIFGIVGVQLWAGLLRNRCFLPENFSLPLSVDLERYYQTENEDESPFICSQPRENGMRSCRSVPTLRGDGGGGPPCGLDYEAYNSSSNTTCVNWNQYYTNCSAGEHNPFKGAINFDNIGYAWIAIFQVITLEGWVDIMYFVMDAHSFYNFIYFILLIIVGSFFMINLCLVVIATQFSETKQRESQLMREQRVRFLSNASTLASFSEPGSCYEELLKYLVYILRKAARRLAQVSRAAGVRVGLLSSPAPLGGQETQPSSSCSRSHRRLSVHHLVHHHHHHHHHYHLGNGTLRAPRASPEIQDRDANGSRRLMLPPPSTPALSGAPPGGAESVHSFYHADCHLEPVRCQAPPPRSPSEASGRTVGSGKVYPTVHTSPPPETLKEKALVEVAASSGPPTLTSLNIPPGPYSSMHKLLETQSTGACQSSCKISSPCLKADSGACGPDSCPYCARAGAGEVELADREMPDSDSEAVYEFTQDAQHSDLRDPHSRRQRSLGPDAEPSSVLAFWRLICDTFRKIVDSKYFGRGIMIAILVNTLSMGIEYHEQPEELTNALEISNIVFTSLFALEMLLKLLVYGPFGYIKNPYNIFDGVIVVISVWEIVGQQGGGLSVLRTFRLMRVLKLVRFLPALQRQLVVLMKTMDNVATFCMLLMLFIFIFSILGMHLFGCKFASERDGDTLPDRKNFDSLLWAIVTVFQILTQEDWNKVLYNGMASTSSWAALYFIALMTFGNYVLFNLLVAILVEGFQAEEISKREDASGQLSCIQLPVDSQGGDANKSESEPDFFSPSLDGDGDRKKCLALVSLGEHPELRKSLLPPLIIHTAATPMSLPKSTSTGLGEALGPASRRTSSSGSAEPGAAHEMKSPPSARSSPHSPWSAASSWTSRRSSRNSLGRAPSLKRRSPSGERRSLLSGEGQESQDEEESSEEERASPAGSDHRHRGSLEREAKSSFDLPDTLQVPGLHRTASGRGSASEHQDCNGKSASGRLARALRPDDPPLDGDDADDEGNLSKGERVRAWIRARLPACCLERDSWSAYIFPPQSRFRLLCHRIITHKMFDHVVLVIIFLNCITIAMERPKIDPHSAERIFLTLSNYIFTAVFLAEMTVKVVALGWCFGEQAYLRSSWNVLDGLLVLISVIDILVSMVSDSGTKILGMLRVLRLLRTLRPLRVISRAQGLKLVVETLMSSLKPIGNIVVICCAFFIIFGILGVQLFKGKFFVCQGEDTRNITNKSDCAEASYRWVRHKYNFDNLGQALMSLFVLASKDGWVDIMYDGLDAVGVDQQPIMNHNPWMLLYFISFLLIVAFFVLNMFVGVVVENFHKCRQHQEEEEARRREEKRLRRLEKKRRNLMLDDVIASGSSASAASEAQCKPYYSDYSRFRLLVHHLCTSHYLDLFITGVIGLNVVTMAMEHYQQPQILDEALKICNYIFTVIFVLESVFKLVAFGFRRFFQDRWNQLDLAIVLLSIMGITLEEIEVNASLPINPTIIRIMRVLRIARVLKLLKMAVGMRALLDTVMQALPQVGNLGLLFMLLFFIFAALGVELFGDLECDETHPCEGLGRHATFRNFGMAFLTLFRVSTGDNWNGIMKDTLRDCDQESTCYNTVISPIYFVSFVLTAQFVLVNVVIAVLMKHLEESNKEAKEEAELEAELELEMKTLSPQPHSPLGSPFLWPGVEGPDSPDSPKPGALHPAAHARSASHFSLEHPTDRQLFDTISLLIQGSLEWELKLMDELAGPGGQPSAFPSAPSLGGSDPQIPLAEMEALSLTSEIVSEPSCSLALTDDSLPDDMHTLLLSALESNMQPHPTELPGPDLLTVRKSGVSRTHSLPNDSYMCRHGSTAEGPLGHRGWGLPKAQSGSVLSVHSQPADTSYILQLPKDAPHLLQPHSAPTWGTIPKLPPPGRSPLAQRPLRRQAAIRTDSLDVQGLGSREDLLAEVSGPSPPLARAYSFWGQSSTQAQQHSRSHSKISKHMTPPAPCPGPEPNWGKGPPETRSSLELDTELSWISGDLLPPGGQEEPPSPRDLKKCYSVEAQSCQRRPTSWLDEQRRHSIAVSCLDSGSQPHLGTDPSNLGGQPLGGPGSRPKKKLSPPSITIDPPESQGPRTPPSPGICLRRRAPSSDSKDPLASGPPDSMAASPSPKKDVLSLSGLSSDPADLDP
Source text: (§1) Another method, high-throughput spectrophotometric assay, utilizes loading of the cell lines with a fluorescent dye sensitive to intracellular calcium concentration and subsequent examination of the effects of compounds on the ability of depolarization by potassium chloride or other means to alter intracellular calcium levels.

[4] = biological target: T-type calcium channel (Homo sapiens, UniProt O95180); experiment: T-type channel blocking, FLIPR data (Table 6); details: for CAv3.2 IC50 Ratio closed/inact.: CAv3.2, ratio closed/inactivated IC50
Sequence of T-type calcium channel (Homo sapiens, UniProt O95180) (O95180 whole entry): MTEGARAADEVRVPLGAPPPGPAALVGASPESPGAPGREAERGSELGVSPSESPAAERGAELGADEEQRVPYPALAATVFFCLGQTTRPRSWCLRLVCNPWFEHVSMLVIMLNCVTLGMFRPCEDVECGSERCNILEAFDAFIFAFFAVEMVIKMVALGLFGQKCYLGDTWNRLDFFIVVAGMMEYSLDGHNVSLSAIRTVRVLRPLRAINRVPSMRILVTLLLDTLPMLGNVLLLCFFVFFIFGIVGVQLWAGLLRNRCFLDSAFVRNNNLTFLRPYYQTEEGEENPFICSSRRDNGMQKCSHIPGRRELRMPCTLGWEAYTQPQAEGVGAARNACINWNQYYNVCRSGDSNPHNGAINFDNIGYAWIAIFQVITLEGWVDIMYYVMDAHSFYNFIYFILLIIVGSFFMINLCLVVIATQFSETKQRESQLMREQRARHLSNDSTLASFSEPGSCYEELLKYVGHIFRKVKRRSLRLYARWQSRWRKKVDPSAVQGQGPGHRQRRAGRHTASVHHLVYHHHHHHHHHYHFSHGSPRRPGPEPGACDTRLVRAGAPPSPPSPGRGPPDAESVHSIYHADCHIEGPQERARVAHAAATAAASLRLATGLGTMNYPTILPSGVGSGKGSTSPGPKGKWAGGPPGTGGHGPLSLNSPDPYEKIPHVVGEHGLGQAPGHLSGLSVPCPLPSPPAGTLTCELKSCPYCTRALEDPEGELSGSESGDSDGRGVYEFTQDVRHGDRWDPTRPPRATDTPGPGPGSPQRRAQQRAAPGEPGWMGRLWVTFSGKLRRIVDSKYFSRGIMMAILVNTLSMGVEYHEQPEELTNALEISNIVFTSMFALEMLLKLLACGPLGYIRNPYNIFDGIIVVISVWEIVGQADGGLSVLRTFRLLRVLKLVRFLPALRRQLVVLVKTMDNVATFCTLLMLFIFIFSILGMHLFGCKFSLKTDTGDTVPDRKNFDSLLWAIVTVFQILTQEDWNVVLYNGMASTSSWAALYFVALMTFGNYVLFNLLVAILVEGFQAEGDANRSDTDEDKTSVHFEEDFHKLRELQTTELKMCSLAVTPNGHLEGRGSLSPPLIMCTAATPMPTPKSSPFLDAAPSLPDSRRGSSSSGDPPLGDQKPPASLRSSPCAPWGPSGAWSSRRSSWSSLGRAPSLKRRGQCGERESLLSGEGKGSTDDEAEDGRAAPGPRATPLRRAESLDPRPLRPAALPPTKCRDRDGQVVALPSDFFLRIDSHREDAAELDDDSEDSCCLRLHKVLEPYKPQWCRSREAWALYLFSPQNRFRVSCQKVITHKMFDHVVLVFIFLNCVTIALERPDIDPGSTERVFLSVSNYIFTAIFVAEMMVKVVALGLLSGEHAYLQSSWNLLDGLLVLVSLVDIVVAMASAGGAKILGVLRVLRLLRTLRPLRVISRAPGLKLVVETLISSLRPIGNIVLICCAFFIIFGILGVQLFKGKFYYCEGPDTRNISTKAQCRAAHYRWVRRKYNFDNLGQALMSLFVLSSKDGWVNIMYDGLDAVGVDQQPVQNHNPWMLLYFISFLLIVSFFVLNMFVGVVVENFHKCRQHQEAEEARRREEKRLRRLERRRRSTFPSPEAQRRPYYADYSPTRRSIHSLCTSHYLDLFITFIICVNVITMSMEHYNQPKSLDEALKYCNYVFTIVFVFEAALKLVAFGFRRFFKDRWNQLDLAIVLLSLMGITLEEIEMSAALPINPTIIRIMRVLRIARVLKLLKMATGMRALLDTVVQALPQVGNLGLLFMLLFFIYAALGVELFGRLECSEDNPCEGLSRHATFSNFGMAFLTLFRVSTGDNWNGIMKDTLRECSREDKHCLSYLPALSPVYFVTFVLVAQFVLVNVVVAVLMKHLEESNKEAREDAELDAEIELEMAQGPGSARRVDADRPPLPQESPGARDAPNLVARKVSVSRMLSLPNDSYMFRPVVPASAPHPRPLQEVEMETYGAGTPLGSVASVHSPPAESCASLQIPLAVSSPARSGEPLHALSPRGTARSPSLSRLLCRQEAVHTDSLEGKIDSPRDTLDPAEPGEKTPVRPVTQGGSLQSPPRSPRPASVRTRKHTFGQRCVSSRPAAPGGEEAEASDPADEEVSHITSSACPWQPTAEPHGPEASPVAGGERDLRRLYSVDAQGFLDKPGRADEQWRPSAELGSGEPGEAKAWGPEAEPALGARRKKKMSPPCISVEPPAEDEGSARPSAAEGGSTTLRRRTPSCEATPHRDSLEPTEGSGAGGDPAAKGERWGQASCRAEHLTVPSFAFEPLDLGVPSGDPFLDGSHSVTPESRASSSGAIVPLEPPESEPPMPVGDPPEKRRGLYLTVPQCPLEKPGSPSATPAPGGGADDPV
Source text: as §1

[5] = closed state, read-out: CAv2.2 IC50 Closed
[6] = inactivated state, read-out: CAv2.2 IC50 Inact.
[7] = closed state, read-out: CAv1.2 IC50 Closed
[8] = inactivated state, read-out: CAv1.2 IC50 Inact.
[9] = CAv3.2, closed state, read-out: CAv3.2 IC50 Closed
[10] = CAv3.2, inactivated state, read-out: CAv3.2 IC50 Inact.

O=C(NC[C@H]1C[C@H](S(=O)(=O)c2cccc(C(F)(F)F)c2)C1)c1ccc(C(F)(F)F)cc1 [Compound 572]
IC50 [1, 5]: 3540 nM
IC50 [1, 6]: 270 nM
CAv2.2 IC50 Ratio closed/inact. [1]: 13.1
IC50 [2, 7]: 7.35 µM
IC50 [2, 8]: 3.01 µM
CAv1.2 IC50 Ratio closed/inact. [2]: 2.4
IC50 [3]: 8.16 µM
IC50 [4, 9]: 2.6 µM
IC50 [4, 10]: 1.68 µM
CAv3.2 IC50 Ratio closed/inact. [4]: 1.5

O=C(NC[C@H]1C[C@H](S(=O)(=O)c2cc(F)cc(C(F)(F)F)c2)C1)c1ccc(Cl)cn1 [Compound 702]
IC50 [1, 5]: 3950 nM
IC50 [1, 6]: 890 nM
CAv2.2 IC50 Ratio closed/inact. [1]: 4.4
IC50 [2, 7]: 9.86 µM
IC50 [2, 8]: 7.28 µM
CAv1.2 IC50 Ratio closed/inact. [2]: 1.4
IC50 [3]: ≥ 10 µM
IC50 [4, 9]: 7.5 µM
IC50 [4, 10]: 3.79 µM
CAv3.2 IC50 Ratio closed/inact. [4]: 2

O=C(NC[C@H]1C[C@H](S(=O)(=O)c2cc(F)cc(C(F)(F)F)c2)C1)c1ccc(C(F)(F)F)nc1 [Compound 704]
IC50 [1, 5]: 10000 nM
IC50 [1, 6]: 1650 nM
CAv2.2 IC50 Ratio closed/inact. [1]: 6.1
IC50 [2, 8]: ≥ 10 µM
IC50 [3]: ≥ 10 µM
IC50 [4, 9]: ≥ 10 µM
IC50 [4, 10]: 8.75 µM
CAv3.2 IC50 Ratio closed/inact. [4]: 1.1

CC(C)([C@H]1C[C@H](NS(=O)(=O)c2ccc(C(F)(F)F)cc2)C1)S(=O)(=O)c1cccc(C(F)(F)F)c1 [Compound 663]
IC50 [1, 5]: 9190 nM
IC50 [1, 6]: 870 nM
CAv2.2 IC50 Ratio closed/inact. [1]: 10.6
IC50 [2, 7]: ≥ 10 µM
IC50 [2, 8]: 2.98 µM
CAv1.2 IC50 Ratio closed/inact. [2]: 3.4
IC50 [3]: 2.01 µM
IC50 [4, 9]: 2.94 µM
IC50 [4, 10]: 1.53 µM
CAv3.2 IC50 Ratio closed/inact. [4]: 1.9

CC(C)([C@H]1C[C@@H](NS(=O)(=O)c2ccc(Cl)c(F)c2)C1)S(=O)(=O)c1cccc(C(F)(F)F)c1 [Compound 626]
IC50 [1, 5]: 8450 nM
IC50 [1, 6]: 1100 nM
CAv2.2 IC50 Ratio closed/inact. [1]: 7.7
IC50 [2, 7]: 9.15 µM
IC50 [2, 8]: 5.4 µM
CAv1.2 IC50 Ratio closed/inact. [2]: 1.7
IC50 [3]: 3.77 µM
IC50 [4, 9]: 3.85 µM
IC50 [4, 10]: 2.58 µM
CAv3.2 IC50 Ratio closed/inact. [4]: 1.5

O=C(NC[C@H]1C[C@H](S(=O)(=O)c2cccc(OC(F)(F)F)c2)C1)c1ccc(Cl)cn1 [Compound 693]
IC50 [1, 5]: 1770 nM
IC50 [1, 6]: 340 nM
CAv2.2 IC50 Ratio closed/inact. [1]: 5.2
IC50 [2, 7]: ≥ 10 µM
IC50 [2, 8]: 6.64 µM
CAv1.2 IC50 Ratio closed/inact. [2]: 1.5
IC50 [3]: ≥ 10 µM
IC50 [4, 9]: 7.95 µM
IC50 [4, 10]: 2.77 µM
CAv3.2 IC50 Ratio closed/inact. [4]: 2.9

CC(C)([C@H]1C[C@@H](NS(=O)(=O)c2ccc(C(F)(F)F)cc2Cl)C1)S(=O)(=O)c1cc(F)cc(C(F)(F)F)c1 [Compound 622]
IC50 [1, 5]: 4790 nM
IC50 [1, 6]: 680 nM
CAv2.2 IC50 Ratio closed/inact. [1]: 7
IC50 [2, 7]: 9.01 µM
IC50 [2, 8]: 1.94 µM
CAv1.2 IC50 Ratio closed/inact. [2]: 4.6
IC50 [3]: 4.86 µM
IC50 [4, 9]: ≥ 10 µM
IC50 [4, 10]: 4.48 µM
CAv3.2 IC50 Ratio closed/inact. [4]: 2.2

O=C(NC[C@H]1C[C@H](S(=O)(=O)c2cc(F)cc(C(F)(F)F)c2)C1)c1cnc(C(F)(F)F)nc1 [Compound 705]
IC50 [1, 5]: 10000 nM
IC50 [1, 6]: 2470 nM
CAv2.2 IC50 Ratio closed/inact. [1]: 4
IC50 [2, 7]: ≥ 10 µM
IC50 [2, 8]: ≥ 10 µM
IC50 [3]: ≥ 10 µM
IC50 [4, 9]: ≥ 10 µM
IC50 [4, 10]: 10 µM
CAv3.2 IC50 Ratio closed/inact. [4]: 1

O=C(NC[C@H]1C[C@H](S(=O)(=O)c2cc(F)cc(C(F)(F)F)c2)C1)c1ccnc(C(F)(F)F)n1 [Compound 710]
IC50 [1, 5]: 5010 nM
IC50 [1, 6]: 1490 nM
CAv2.2 IC50 Ratio closed/inact. [1]: 3.4
IC50 [2, 7]: ≥ 10 µM
IC50 [2, 8]: ≥ 10 µM
IC50 [3]: ≥ 10 µM
IC50 [4, 9]: ≥ 10 µM
IC50 [4, 10]: 10 µM
CAv3.2 IC50 Ratio closed/inact. [4]: 1

CC(C)S(=O)(=O)c1cc(C(F)(F)F)cnc1C(=O)NCC1CC(C(C)(C)S(=O)(=O)c2cccc(C(F)(F)F)c2)C1 (stereo not shown) [Compound 613]
IC50 [1, 5]: 6510 nM
IC50 [1, 6]: 350 nM
CAv2.2 IC50 Ratio closed/inact. [1]: 18.6
IC50 [2, 7]: 8 µM
IC50 [2, 8]: 5.92 µM
CAv1.2 IC50 Ratio closed/inact. [2]: 1.4
IC50 [3]: ≥ 10 µM
IC50 [4, 9]: 9.16 µM
IC50 [4, 10]: 5.45 µM
CAv3.2 IC50 Ratio closed/inact. [4]: 1.7

CS(=O)(=O)c1cc(Cl)ccc1C(=O)NC[C@H]1C[C@H](S(=O)(=O)c2cccc(OC(F)(F)F)c2)C1 [Compound 692]
IC50 [1, 5]: 7750 nM
IC50 [1, 6]: 780 nM
CAv2.2 IC50 Ratio closed/inact. [1]: 9.9
IC50 [2, 7]: ≥ 10 µM
IC50 [2, 8]: ≥ 10 µM
IC50 [3]: 9.81 µM
IC50 [4, 9]: 7.92 µM
IC50 [4, 10]: 2.48 µM
CAv3.2 IC50 Ratio closed/inact. [4]: 3.2

CC(C)([C@H]1C[C@@H](CNc2ccnc(C(F)(F)F)n2)C1)S(=O)(=O)c1cccc(C(F)(F)F)c1 [Compound 691]
IC50 [1, 5]: 4030 nM
IC50 [1, 6]: 530 nM
CAv2.2 IC50 Ratio closed/inact. [1]: 7.6
IC50 [2, 7]: 4.94 µM
IC50 [2, 8]: 2.22 µM
CAv1.2 IC50 Ratio closed/inact. [2]: 2.2
IC50 [3]: 5.83 µM
IC50 [4, 9]: 7.35 µM

CC(C)S(=O)(=O)c1cc(C(F)(F)F)cnc1C(=O)N[C@H]1C[C@@H](C(C)(C)S(=O)(=O)c2cc(F)cc(C(F)(F)F)c2)C1 [Compound 586]
IC50 [1, 5]: 10000 nM
IC50 [1, 6]: 480 nM
CAv2.2 IC50 Ratio closed/inact. [1]: 20.8
IC50 [2, 7]: ≥ 10 µM
IC50 [2, 8]: 9.37 µM
CAv1.2 IC50 Ratio closed/inact. [2]: 1.1
IC50 [3]: ≥ 10 µM
IC50 [4, 9]: ≥ 10 µM
IC50 [4, 10]: 10 µM
CAv3.2 IC50 Ratio closed/inact. [4]: 1

CC(C)([C@H]1C[C@@H](NS(=O)(=O)c2ccc(Cl)c(F)c2)C1)S(=O)(=O)c1cc(F)cc(C(F)(F)F)c1 [Compound 600]
IC50 [1, 5]: 5250 nM
IC50 [1, 6]: 820 nM
CAv2.2 IC50 Ratio closed/inact. [1]: 6.4
IC50 [2, 7]: 6.93 µM
IC50 [2, 8]: 2.22 µM
CAv1.2 IC50 Ratio closed/inact. [2]: 3.1
IC50 [3]: 3.57 µM
IC50 [4, 9]: ≥ 10 µM
IC50 [4, 10]: 5.08 µM
CAv3.2 IC50 Ratio closed/inact. [4]: 2

CC(C)(C[C@H]1C[C@H](NC(=O)c2ccc(C(F)(F)F)nc2)C1)S(=O)(=O)c1cccc(C(F)(F)F)c1 [Compound 723]
IC50 [1, 5]: 3140 nM
IC50 [1, 6]: 490 nM
CAv2.2 IC50 Ratio closed/inact. [1]: 6.4
IC50 [2, 7]: ≥ 10 µM
IC50 [2, 8]: 4.89 µM
CAv1.2 IC50 Ratio closed/inact. [2]: 2
IC50 [3]: 7.86 µM
IC50 [4, 9]: 6.22 µM
IC50 [4, 10]: 5.1 µM
CAv3.2 IC50 Ratio closed/inact. [4]: 1.2

CC(C)([C@H]1C[C@@H](CNC(=O)c2ncc(C(F)(F)F)cc2S(C)(=O)=O)C1)S(=O)(=O)c1cccc(C(F)(F)F)c1 [Compound 690]
IC50 [1, 5]: 10000 nM
IC50 [1, 6]: 450 nM
CAv2.2 IC50 Ratio closed/inact. [1]: 22.2
IC50 [2, 7]: ≥ 10 µM
IC50 [2, 8]: ≥ 10 µM
IC50 [3]: ≥ 10 µM
IC50 [4, 9]: ≥ 10 µM

CC(C)([C@H]1C[C@H](NS(=O)(=O)c2ccc(OC(F)(F)F)cc2)C1)S(=O)(=O)c1cc(F)cc(C(F)(F)F)c1 [Compound 610]
IC50 [1, 5]: 3580 nM
IC50 [1, 6]: 1130 nM
CAv2.2 IC50 Ratio closed/inact. [1]: 3.2
IC50 [2, 7]: 8.93 µM
IC50 [2, 8]: 2.93 µM
CAv1.2 IC50 Ratio closed/inact. [2]: 3
IC50 [3]: 5.3 µM
IC50 [4, 9]: ≥ 10 µM
IC50 [4, 10]: 1.43 µM
CAv3.2 IC50 Ratio closed/inact. [4]: 7
